Test results from patent US12275707B2, “Modulators of mas-related g-protein receptor X2 and related products and methods” (Escient Pharmaceuticals, Inc., priority 2020, dated 2025).

tested on: not listed separately; assay: Mouse Pharmacokinetics Studies; type: in vivo; conditions: male, C57BL/6, mouse, plasma, po, 50 mg/kg, male C57BL/6 mice, 50 mg/kg oral gavage, non-fasted, read-out: AUC 0-24
Protocol: Compounds were formulated in 5% DMSO, 5% Solutol, and 90% PBS without Ca and Mg (pH 7.4) at a concentration of 5 mg/mL. Male C57BL/6 mice (n=3/compound) were administered a 50 mg/kg dose of each compound by oral gavage under a non-fasted condition. Blood samples were collected via the saphenous vein onto K2-EDTA at 0.25, 0.5, 1, 2, 4, 8 and 24 hours after dosing, and plasma was prepared and stored at −80° C. until analysis. Plasma sample preparation for analysis was done by protein precipitation using acetonitrile (including Verapamil as an internal standard) followed by centrifugation. Compound concentrations were determined in extracted plasma using LC-MS/MS relative to a 12 point standard curve covering the 1 to 4000 nM range. Non-compartmental analysis using Phoenix WinNonlin was used to estimate pharmacokinetic parameters including area under the curve, clearance, and half-life. The administered dose was confirmed by analysis of residual dosing material by UPLC-UV relative to a single point calibration sample.

**Q.** Which AUC(0-t) does the source give for `O=C(N[C@@H]1CCC[C@H](Nc2cc(C(F)(F)F)nc3ccc(Cl)cc23)C1)N1CC2(CC2)C1` [Example 6-9] here?
**A.** Its AUC(0-t) is 43 µM·h.

same assay, conditions: male, C57BL/6, mouse, plasma, po, 50 mg/kg, male C57BL/6 mice, 50 mg/kg oral gavage, non-fasted, read-out: AUC 0-last

**Q.** For `O=C(N[C@@H]1CCC[C@H](Nc2cc(C(F)(F)F)nc3ccc(Cl)cc23)C1)N1CC2(CC2)C1` [Example 6-9], which AUC(0-t) is on record?
**A.** The AUC(0-t) was 42 µM·h.

same assay, conditions: mouse; male C57BL/6 mice, 50 mg/kg oral gavage, non-fasted, plasma

**Q.** For `O=C(N[C@@H]1CCC[C@H](Nc2cc(C(F)(F)F)nc3ccc(Cl)cc23)C1)N1CC2(CC2)C1` [Example 6-9], which Cmax is on record?
**A.** The Cmax was 5.1 µM.

same assay, conditions: mouse; male C57BL/6 mice, 50 mg/kg oral gavage, non-fasted, plasma; read-out: PK: Tmax

**Q.** With `O=C(N[C@@H]1CCC[C@H](Nc2cc(C(F)(F)F)nc3ccc(Cl)cc23)C1)N1CC2(CC2)C1` [Example 6-9] as the compound, how does the Tmax read?
**A.** Its Tmax is 3.3 h.

target: T1, human MRGPR X2 (Homo sapiens, UniProt Q96LB1); assay: MRGPR X2 activity, IP-One Gq HTRF antagonist assay versus 0.3 μM Cortistatin-14; type: cell-based; conditions: CHO cells expressing human MRGPR X2; versus 0.3 μM Cortistatin-14 agonist; IP-1 HTRF; read-out: MRGPRX2 Antagonist Activity
T1 construct: expressed in transfected cells
T1 sequence (Q96LB1 1-330): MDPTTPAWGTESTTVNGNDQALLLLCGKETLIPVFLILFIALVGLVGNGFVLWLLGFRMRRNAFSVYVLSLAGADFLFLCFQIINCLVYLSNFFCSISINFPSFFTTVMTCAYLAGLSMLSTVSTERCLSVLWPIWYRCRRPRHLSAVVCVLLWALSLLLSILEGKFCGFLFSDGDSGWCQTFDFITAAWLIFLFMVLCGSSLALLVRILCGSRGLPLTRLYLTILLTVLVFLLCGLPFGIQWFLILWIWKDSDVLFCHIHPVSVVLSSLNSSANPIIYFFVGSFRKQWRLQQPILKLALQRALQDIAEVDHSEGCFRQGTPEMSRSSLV
Protocol: CHO cells stably transfected to express human MRGPR X2 were maintained in an incubator at 37° C. with 5% CO2 and grown in F12 (HAM) media with 10% fetal bovine serum (FBS), 1% Glutamax, 1% penicillin/streptomycin, 800 μg/mL Geneticin (G418), and 300 μg/mL Hygromycin B.
Cells were plated in a 384-well assay plate at 20,000 cells per well in 12 μL of Opti-MEM and kept in an incubator overnight. On the day of the assay, compounds solubilized at 10 mM in DMSO were added as a 10-point curve (30 μM final top concentration with 1:3 serial dilutions) using a Tecan D300E digital dispenser. Agonists were diluted in assay buffer (final concentrations of 5.7 mM Tris-HCl, 43 mM NaCl, 50 mM LiCl, pH=8) and 2 μL of the agonist Cortistatin-14 (CPC Scientific, catalog CORT-002) are added to each well. Final concentrations of agonists were 0.3 μM Cortistatin. Final concentrations of DMSO were kept consistent across the plate. Plates were incubated in the dark for 1 h at 37° C. and then for 1 h at room temperature. IP-1 standards and HTRF detection reagents were added according to the IP-One—Gq Kit purchased from Cisbio (part number 62IPAPEJ) and incubated in the dark for 1 h at room temperature. The plate was read on a Molecular Devices SpectraMax iD5 plate reader. The HTRF ratio was calculated from the raw data and graphed using GraphPad Prism to calculate an IC50 value for each compound.
The activity ranges are denoted as follows: “+++++” denotes antagonist activity<100 nM; “++++” denotes antagonist activity between 100 and 500 nM; “+++” denotes activity between 501 and 1000 nM; “++” denotes activity between 1001 and 2500 nM; and “+” denotes activity>2500 nM

**Q.** Which IC50 does the source give for `O=C(N[C@@H]1CCC[C@H](Nc2cc(C(F)(F)F)nc3ccccc23)C1)c1cccc(N2CCCC2=O)c1` [Example 4-172] here?
**A.** Its IC50 is 1000 to 2500 nM.

**Q.** For `O=C(N[C@@H]1CCC[C@H](Nc2cc(C(F)(F)F)nc3ccc(Cl)cc23)C1)c1cnc(NCCF)nc1` [Example 4-423], which IC50 is on record?
**A.** Its IC50 is under 100 nM.

**Q.** Which IC50 does the source give for `Cc1nc(N(C)C)ccc1C(=O)N[C@@H]1CCC[C@H](Nc2cc(C(F)(F)F)nc3ccccc23)C1` [Example 4-22] here?
**A.** The IC50 was 1000 to 2500 nM.

**Q.** Which IC50 does the source give for `N#CC1(C(=O)N[C@@H]2CCC[C@H](Nc3cc(C(F)(F)F)nc4ccccc34)C2)CC1` [Example 4-183] here?
**A.** Its IC50 is 1000 to 2500 nM.

**Q.** Which IC50 does the source give for `Nc1ncc(C(=O)N[C@@H]2CCC[C@H](Nc3cc(C(F)(F)F)nc4ccc(Cl)cc34)C2)cn1` [Example 15, 2-amino-N-[(1R,3S)-3-{[6-chloro-2-(trifluoromethyl)quinolin-4-yl]amino}cyclohexyl]pyrimidine-5-carboxamide] here?
**A.** Its IC50 is under 100 nM.

**Q.** For `COc1ccc(C(=O)N[C@@H]2CCC[C@H](Nc3cc(C(F)(F)F)nc4ccc(Cl)cc34)C2)cc1` [Example 1, N-((1R,3S)-3-((6-chloro-2-(trifluoromethyl)quinolin-4-yl)amino)cyclohexyl)-4-methoxybenzamide], which IC50 is on record?
**A.** Its IC50 is under 100 nM.

**Q.** For `N#Cc1ccccc1C(=O)N[C@@H]1CCC[C@H](Nc2cc(C(F)(F)F)nc3ccccc23)C1` [Example 3-6], which IC50 is on record?
**A.** The IC50 was 100 to 500 nM.

**Q.** With `O=C(N[C@@H]1CCC[C@H](Nc2cc(C(F)(F)F)nc3ccc(Cl)cc23)C1)c1ccsn1` [Example 4-425] as the compound, how does the IC50 read?
**A.** The IC50 was under 100 nM.

**Q.** With `O=C(N[C@@H]1CCC[C@H](Nc2cc(C(F)(F)F)nc3ccc(Cl)cc23)C1)c1cccc(F)c1` [Example 4-239] as the compound, how does the IC50 read?
**A.** The IC50 was 100 to 500 nM.

**Q.** Which IC50 does the source give for `CCCc1nnsc1C(=O)N[C@@H]1CCC[C@H](Nc2cc(C(F)(F)F)nc3ccccc23)C1` (racemic) [Example 4-40] here?
**A.** Its IC50 is 1000 to 2500 nM.

**Q.** Which IC50 does the source give for `O=C(CN1C(=O)COc2ccccc21)N[C@@H]1CCC[C@H](Nc2cc(C(F)(F)F)nc3ccccc23)C1` (racemic) [Example 4-100] here?
**A.** The IC50 was 1000 to 2500 nM.

**Q.** With `CN(C)c1ncc(C(=O)N[C@@H]2CCC[C@H](Nc3cc(C(F)(F)F)nc4ccc(Cl)cc34)C2)s1` [Example 4-422] as the compound, how does the IC50 read?
**A.** Its IC50 is under 100 nM.

**Q.** Which IC50 does the source give for `N#CCCn1ncc(C(=O)N[C@@H]2CCC[C@H](Nc3cc(C(F)(F)F)nc4ccc(Cl)cc34)C2)c1Cl` [Example 4-420] here?
**A.** Its IC50 is under 100 nM.

**Q.** For `CC(C)Cc1cc(C(=O)N[C@@H]2CCC[C@H](Nc3cc(C(F)(F)F)nc4ccccc34)C2)n(C)n1` (racemic) [Example 4-90], which IC50 is on record?
**A.** The IC50 was 1000 to 2500 nM.

**Q.** For `O=C(N[C@@H]1CCC[C@H](Nc2cc(C(F)(F)F)nc3ccc(Cl)cc23)C1)c1ccn(CCF)c1` [Example 19, N-((1R,3S)-3-((6-chloro-2-(trifluoromethyl)quinolin-4-yl)amino)cyclohexyl)-1-(2-fluoroethyl)-1H-pyrrole-3-carboxamide], which IC50 is on record?
**A.** The IC50 was under 100 nM.

**Q.** Which IC50 does the source give for `CCS(=O)(=O)Nc1cccc(C(=O)N[C@@H]2CCC[C@H](Nc3cc(C(F)(F)F)nc4ccc(Cl)cc34)C2)c1` [Example 4-241] here?
**A.** The IC50 was under 100 nM.

**Q.** Which IC50 does the source give for `O=C(N[C@@H]1CCC[C@H](Nc2cc(C(F)(F)F)nc3ccc(Cl)cc23)C1)c1cnn(C(F)F)c1` [Example 4-399] here?
**A.** Its IC50 is under 100 nM.

**Q.** Which IC50 does the source give for `O=C(N[C@@H]1CCC[C@H](Nc2nc(C(F)(F)F)nc3ccccc23)C1)c1ccc(F)cc1` [Example 3, 4-fluoro-N-[(1R,3S)-3-[[2-(trifluoromethyl)quinazolin-4-yl]amino]cyclohexyl]benzamide] here?
**A.** The IC50 was 501 to 1000 nM.

**Q.** For `O=C(N[C@@H]1CCC[C@H](Nc2cc(C(F)(F)F)nc3ccccc23)C1)C1(c2cnccn2)CC1` (racemic) [Example 4-29], which IC50 is on record?
**A.** Its IC50 is 1000 to 2500 nM.

**Q.** With `CN(C)c1ccc(C(=O)N[C@@H]2CCC[C@H](Nc3cc(C(F)(F)F)nc4ccc(F)cc34)C2)cc1` [Example 4-421] as the compound, how does the IC50 read?
**A.** Its IC50 is under 100 nM.

**Q.** For `COc1ccc(COc2cc(C(=O)N[C@@H]3CCC[C@H](Nc4cc(C(F)(F)F)nc5ccccc45)C3)on2)cc1` (racemic) [Example 4-35], which IC50 is on record?
**A.** Its IC50 is 1000 to 2500 nM.

**Q.** Which IC50 does the source give for `O=C(N[C@@H]1CCC[C@H](Nc2cc(C(F)(F)F)nc3ccc(Cl)cc23)C1)c1ccc(F)nc1` [Example 4-411] here?
**A.** Its IC50 is under 100 nM.

**Q.** With `O=C(N[C@@H]1CCC[C@H](Nc2cc(C(F)(F)F)nc3ccccc23)C1)c1ccc(F)cc1` [Example 1-8] as the compound, how does the IC50 read?
**A.** Its IC50 is 100 to 500 nM.

tested on: Human LAD2 cells; assay: Mast Cell Beta-Hexosaminidase Release Assay (500 nM Cortistatin-14); type: cell-based; conditions: read-out: MRGPRX2 Antagonist Activity
Protocol: Human LAD2 cells (NIH) were maintained in an incubator at 37° C. with 5% CO2 and cultured in StemPro-34 serum-free media (Gibco 10639011) supplemented with 2 mM L-glutamine, 100 U/ml penicillin, […] streptomycin and 100 ng/ml SCF (Invitrogen PEP0860), at a concentration of 2-5×10^5 cells/mL, with hemidepletion every 1-2 weeks.
Cells were transferred to SCF-Free medium at 2.5×10^5 cells/mL and kept in an incubator overnight. On the day of the assay, cells were washed twice in Assay Buffer (final concentrations 10 mM HEPES, 137 mM NaCl, 5.6 mM D-glucose, 2.7 mM KCl, 1 mM MgCl, 1.8 mM CalCl2, 0.4 mM Na2HPO4·7H2O, 0.04% BSA, pH=7.4) and plated in a 96-well v-bottom plate at 20,000 cells per well in 80 μL Assay Buffer. […] After incubation, 50 μL of 400 mM Glycine buffer (pH 10.7) was added into each well and the plate was read on a Molecular Devices SpectraMax iD5 plate reader (absorbance at 405 nm with reference filter at 620 nm). After background subtraction, the percentage degranulation (percent beta-hexosaminidase release) was calculated as 100×(supernatant values)/(supernatant+lysate values), followed by analysis using GraphPad Prism software to calculate an IC50 value for each compound. […]

**Q.** With `N#CCCn1ncc(C(=O)N[C@@H]2CCC[C@H](Nc3cc(C(F)(F)F)nc4ccc(Cl)cc34)C2)c1Cl` [Example 4-420] as the compound, how does the IC50 read?
**A.** The IC50 was under 100 nM.
